Laboratory results: patent US20100143980A1, “SYNTHESIS OF NOVEL XYLOSIDES AND POTENTIAL USES THEREOF” (priority 2007, published 2010)
Entries after “also recorded” stand apart in the source; their conditions may differ.

Tests used:
CHO pgsA-745 [1] = experiment: Priming of glycosaminoglycan synthesis by xylosides, 35S-sulfate incorporation into purified HS/CS; type: cell-based; conditions: for GAG priming ability (in words, relative to the comparator named): CHO pgsA-745 cells, concentration not given; for GAG priming activity at 10 uM (in words): 10 uM primer
Procedure: To determine whether the xylosides are able to prime the synthesis of glycosaminoglycans in cells in vitro experiments were performed using CHO pgsA-745. The cells were treated with appropriate primers in the presence of 35S—Na2SO4, glycosaminoglycans were purified and analyzed as described below. 1×10^4 cells were plated per well in Ham's/F12 complete growth medium in a 24-well plate. The cells were incubated at 37° C. in a humidified incubator for 24 hours to a confluency of about 50%. The cells were washed with sterile PBS and replaced with 450 μL ham's/F12 containing 10% dialyzed FBS. Solutions containing a specific primer at 100× the final concentration were prepared. 5 μL of appropriate 100× primer were added to various wells to yield a final concentration of 100 μM. 50 μCi of 35S—Na2SO4 was also added to each well as tracer. The 24-well plates were placed back in the 37° C. incubator for 24 hours before the addition of 100 μL 6× pronase solution followed by incubation at 37° C. overnight.
(§1) To determine whether the xylosides are able to prime the synthesis of glycosaminoglycans in cells, in vitro experiments were performed using CHO pgsA-745. The cells were treated with appropriate primers in the presence of 35S—Na2SO4, glycosaminoglycans were purified and analyzed as described below. 1×10^4 cells were plated per well in Ham's/F12 complete growth medium in a 24-well plate. The cells were incubated at 37° C. in a humidified incubator for 24 hours to a confluency of about 50%. The cells were washed with sterile PBS and replaced with 450 uL ham's/F12 containing 10% dialyzed FBS. Serial dilutions of the primers at 100× the final concentration were prepared. 5 uL of appropriate 100× primer were added to various wells to yield a final concentration of 1, 10, 100 and 1000 uM respectively. 50 uCi of 35S—Na2SO4 was also added to each well as tracer. The 24-well plates were placed back in the 37° C. incubator for 24 hours before the addition of 100 uL 6× pronase solution followed by incubation at 37° C. overnight.
The entire contents of the wells were transferred to a microcentrifuge tube and subjected to centrifugation at 16,000×g for 5 minutes. The supernatant was transferred to a fresh tube and half-a-volume of 0.016% Triton X-100 was added. The diluted supernant was loaded on 0.2 mL DEAE-sepharose column pre-equilibrated with 2 mL of 20 mM NaOAc buffer pH 6.0 containing 0.1 M NaCl and 0.01% Triton X-100 and the column was washed with 4 mL of buffer described above. The bound HS/CS was eluted using 1.2 mL elution buffer, 20 mM NaOAc, pH 6.0, containing 1 M NaCl. The extent of priming by the various xyloside primers was evaluated by quantifying the 35S-radioactivity incorporated in to the purified HS/CS elute by liquid scintillation. 50 uL of the various elutes were added to 5 mL of scintillation cocktail and the vials were counted in a scintillation counter in triplicate. The amount of radioactivity corresponds to the total glycosaminoglycan synthesis due to the primer.
as §1, with “a) To” for “To”, “cells” for “cells,”, “^35S—Na2SO4,” for “35S—Na2SO4,”, “37 C” for “37° C.”, “^35S—Na2SO4” for “35S—Na2SO4”, “The 24-well plates were placed back in the 37° C. incubator for 24 hours before the addition of 100 uL 6× pronase solution followed by incubation at 37° C. overnight.” left out

CHO pgsA-745 [2] = experiment: Composition of HS and CS in the primed glycosaminoglycans (Chondroitinase AC digestion); type: cell-based; conditions: share of HS in total GAG
Procedure: (§2) To determine the composition of the HS and CS in the glycosaminoglycans synthesized, a small aliquot of the elute (300 uL) was diluted 10-fold and digested using Chondroitinase AC. The sample was subjected to precipitation to remove the disaccharide in the presence of cold chondroitin sulfate A and scintillation counted. This gives the amount of HS primed on the xylosides and the difference in the radioactivity corresponds to the amount of chondroitin sulfate in the purified glycoaminoglycan elute.
as §2, with “b) To” for “To”

| Compound | GAG priming ability (in words, relative to the comparator named) (CHO pgsA-745 [1]) | also measured |
| --- | --- | --- |
| OC1COC(n2ccnn2)C(O)C1O (stereo not shown) [compound 1] | primed slightly better than the well known β-O-naphthyl xyloside | – |
| OC1COC(n2ccnn2)C(O)C1O (stereo not shown) [compound 2] | prime GAGs albeit in lesser quantities than their respective β-anomers | – |
| OC1COC(n2cc(COc3cccnc3)nn2)C(O)C1O (stereo not shown) [compound 5] | – | priming efficiency compared to phenyl substituted xyloside compound 7 (CHO pgsA-745 [1]; fold less efficient than compound 7): 10 times |
| OC1COC(n2cc(COc3cccnc3)nn2)C(O)C1O (stereo not shown) [compound 6] | prime GAGs albeit in lesser quantities than their respective β-anomers | – |
| OC1COC(n2cc(COc3ccccc3)nn2)C(O)C1O (stereo not shown) [compound 8] | prime GAGs albeit in lesser quantities than their respective β-anomers | – |
| COc1ccc(OCc2cn(C3OCC(O)C(O)C3O)nn2)cc1 (stereo not shown) [compound 9] | marginal effect on the priming ability | – |
| COc1ccc(OCc2cn(C3OCC(O)C(O)C3O)nn2)cc1 (stereo not shown) [compound 10] | prime GAGs albeit in lesser quantities than their respective β-anomers | – |
| O=[N+]([O-])c1ccc(OCc2cn(C3OCC(O)C(O)C3O)nn2)cc1 (stereo not shown) [compound 15] | – | loss of priming activity by para nitro substitution (CHO pgsA-745 [1]; relative to unsubstituted phenyl xyloside): approximately 30% |
| OC1COC(n2cc(COc3ccc(-c4ccc(Br)cc4)cc3)nn2)C(O)C1O (stereo not shown) [compound 17] | decreased | – |
| OC1COC(n2cc(COc3ccc4cc(Br)ccc4c3)nn2)C(O)C1O (stereo not shown) [compound 19] | completely abolished the priming activity | – |
| OC1COC(n2cc(COc3ccc4c(c3)CCCC4)nn2)C(O)C1O (stereo not shown) [compound 20] | did not significantly influence priming activity | – |
| OC1COC(n2cc(COc3cc4ccccc4c4ccccc34)nn2)C(O)C1O (stereo not shown) [compound 21] | primed less GAG chains than the less hydrophobic xyloside (Table 1A: compound 18) did | – |
| OC1COC(n2cc(COCc3ccccc3)nn2)C(O)C1O (stereo not shown) [compound 23] | prime GAGs albeit in lesser quantities than their respective β-anomers | – |
| OC1COC(n2cc(COCc3ccc(F)cc3)nn2)C(O)C1O (stereo not shown) [compound 24] | down regulates the priming ability | – |
| OCc1cccc(COCc2cn(C3OCC(O)C(O)C3O)nn2)c1 (stereo not shown) [compound 25] | down regulates the priming ability | – |
| OC1COC(n2cc(-c3ccccc3)nn2)C(O)C1O (stereo not shown) [compound 29] | decreased the priming ability by two fold | – |
| COc1ccccc1-c1cn(C2OCC(O)C(O)C2O)nn1 (stereo not shown) [compound 32] | primed nearly two times the amount of GAG chains compared to the unsubstituted xyloside 29 | – |
| COc1ccc(-c2cn(C3OCC(O)C(O)C3O)nn2)cc1 (stereo not shown) [compound 33] | primed one-half the amount of GAG chains compared to the unsubstituted xyloside 29 | – |
| COc1cc(OC)cc(-c2cn(C3OCC(O)C(O)C3O)nn2)c1 (stereo not shown) [compound 34] | showed decrease priming compared to the unsubstituted xyloside 29 | – |
| OC1COC(n2cc(COc3ccc(F)cc3)nn2)C(O)C1O (stereo not shown) [fluoro-substituted derivative] | – | composition of HS in primed glycosaminoglycans (in words) (CHO pgsA-745 [2]): Half |
| O=S(=O)(c1ccccc1)[C@@H]1OC[C@@H](O)[C@H](O)[C@H]1O [sulfone-phenyl xyloside] | – | priming ability relative to the next highest primer at 1 uM (CHO pgsA-745 [1]; 1 uM): four times that of the next highest priming activity seen at this concentration; GAG priming activity at 1 uM (in words) (CHO pgsA-745 [1]; 1 uM primer): better activity at concentration as low as 1 uM; also recorded: highest activity than any of the primers; GAG priming activity at 10 uM (in words) (CHO pgsA-745 [1]): significantly higher priming activity than other xylosides; priming activity relative to the thio-phenyl and thio-pyridyl primers (CHO pgsA-745 [1]; 100 uM): about 60% |
| OC1COC(n2cc(COc3ccc4c(c3)CCCC4)nn2)C(O)C1O (stereo not shown) [tetrahydronaphthyl] | – | GAG priming activity at 10 uM (in words) (CHO pgsA-745 [1]): significantly higher priming activity than other xylosides |
| O[C@@H]1[C@@H](O)[C@H](Sc2ccccc2)OC[C@H]1O [thiophenyl, beta-D-thiophenyl xyloside, reference compound] | – | GAG priming activity at 10 uM (in words) (CHO pgsA-745 [1]): significantly higher priming activity than other xylosides |
| OC1COC(n2cc(COc3ccccc3)nn2)C(O)C1O (stereo not shown) [triazole-O-phenyl] | – | composition of HS in primed glycosaminoglycans (in words) (CHO pgsA-745 [2]): Half |
| C-(2-naphthol)-xyloside | – | composition of HS in primed glycosaminoglycans (CHO pgsA-745 [2]): −72% |
